From patent EP0146443A1, “(-)-1-(2-Fluorophenyl)-2-tertiobutylamino-1-ethanol and therapeutical use” (LABORATOIRE L. LAFON Société anonyme dite:, priority 1983, dated 1985)

How the values were obtained:
Type in all cases: in vivo
souris [1] = assay: Behavioural despair (immobility in water); settings: 0.5 h before immersion
Experimental: (§1) Dans ces essais les produits à tester en solution dans de l'eau distillée (pH5) ont été administrés, par voie intrapéritonéale, sous un volume de 20 ml/kg chez la souris mâle, et, sous un volume de 5 ml/kg chez le rat mâle.
Une demi-heure après avoir reçu les produits à tester, des lots de 6 souris sont placés dans un bécher rempli d'eau sur une hauteur de 6 cm. On note la durée totale d'immobilité entre la 2ème et la 6ème minutes suivant l'immersion.

souris [2] = assay: Global behaviour and reactivities, mouse; settings: for comportement et réactivités: doses of 2 and 0,5 mg/kg i.p.
Experimental: as §1
(§2) Des lots de 6 animaux sont observés avant, puis 0,25 h, 0,50 h, 1 h, 2 h, 3 h, et 24 h après administration des produits à étudier.

souris [3] = assay: Spontaneous motility (actimeter); settings: recorded for 0,5 h, 0.5 h after dosing
Experimental: as §1
Une demi-heure après avoir reçu les produits à tester, les souris (6 par dose, 12 témoins) sont placées en actimètre où leur motilité est enregistrée pendant 0,5 h.

souris [4] = assay: Acute toxicity, intraperitoneal, mouse; settings: I.P.
Experimental: as §1
Le CRL 40 996 est moins toxique que les CRL 40 995 et CRL 40 827. En effet si la DL-0 (dose maximale non mortelle) des trois substances est supérieure ou égale à 64 mg/kg (I.P.; souris), la DL-60 du CRL 40 996 est de l'ordre de 128 mg/kg (I.P.; souris)et la DL-100 des CRL 40 995 et CRL 40 827 est inférieure ou égale à 128 mg/kg (I.P.; souris).

souris [5] = assay: Interaction with reserpine
Experimental: as §1
Quatre heures après l'injection intrapéritonéale de 2,5 mg/kg de réserpine, des lots de 6 souris reçoivent chaque produit à tester.

souris [6] = assay: Interaction with oxotremorine; settings: for tremblements provoqués par l'oxotrémorine / effet hypothermisant de l'oxotrémorine: 0.5 h before oxotremorine 0,5 mg/kg i.p.
Experimental: as §1
Chaque produit à tester est administré à des lots de 6 souris une demi-heure avant l'injection intrapéritonéale de 0,5 mg/kg d'oxotrémorine.

souris [7] = assay: Interaction with apomorphine; settings: 0.5 h before apomorphine 16 mg/kg s.c.
Experimental: as §1
Des lots de 6 souris reçoivent chaque produit à tester une demi-heure avant l'injection sous-cutanée de 16 mg/kg d'apomorphine.

rat = assay: Global behaviour and reactivities, rat
Experimental: as §1, §2

homme = assay: Clinical use in depressive states; settings: oral route, human
Experimental: La posologie préconisée consiste à administrer par jour 3 comprimés ou gélules renfermant chacun 3 à 4 mg de CRL 40 996.

[8] = 32 mg/kg i.p., 4 h after reserpine 2,5 mg/kg i.p.
[9] = doses of 0,5, 2 and 8 mg/kg i.p., 4 h after reserpine 2,5 mg/kg i.p.
[10] = peripheral cholinergic symptoms after oxotremorine 0,5 mg/kg i.p.
[11] = from the dose of 0.5 mg/kg i.p.
[12] = from the dose of 0,5 mg/kg i.p.

CC(C)(C)NCC(O)c1ccccc1F (single isomer, unassigned) [CRL 40 995, chlorhydratede (+)-1-(2-fluorophényl)-2-tertio-butylamino-1-éthanol]
durée de l'immobilité dite du "désespoir comportemental" (souris [1]; i.p., dose not stated): ne modifie pas
comportement et réactivités (souris [2]): sans modifications sensibles par rapport aux animaux témoins
respiration déprimée (duration) (souris [2]; doses of 32 and 8 mg/kg i.p.): 0,5 h
activité motrice spontanée (souris [3]; doses of 8 and 32 mg/kg i.p.): diminue modérément
DL-0 (dose maximale non mortelle) (souris [4]): ≥ 64 mg/kg
DL-100 (souris [4]): ≤ 128 mg/kg
antagonisme de l'hypothermie réserpinique (animals showing it) (souris [5]; [8]): 5 souris sur 6
perte du réflexe de redressement (et l'hypothermie qui en résulte) (souris [5]; [8]): 1 souris sur 6
hypothermie réserpinique (souris [5]; [9]): s'oppose modérément
ptôsis (souris [5]; [9]): sans modifier
tremblements provoqués par l'oxotrémorine (souris [6]; 32 mg/kg i.p., worded as 'seems'): potentialiser
effet hypothermisant de l'oxotrémorine (souris [6]; i.p., dose not stated): n'est pas modifié
signes de stimulation cholinergique (souris [6]; [10]): laissent inchangés
action hypothermisante de l'apomorphine (souris [7]; doses of 8 and 32 mg/kg i.p.): s'oppose
comportement de verticalisation et stéréotypies (souris [7]; doses of 8 and 32 mg/kg i.p.): sans modifier
comportement et réactivités (rat; doses of 16, 4, 1 and 0,5 mg/kg i.p.): sans modifications sensibles par rapport aux animaux témoins

CC(C)(C)NCC(O)c1ccccc1F (racemic) [CRL 40 827, chlorhydratede ( + )-1-(2-fluorophényl)-2-tertiobutylamino-1-éthanol]
activité motrice spontanée (souris [3]; 8 mg/kg i.p.): ne modifie pas
activité motrice spontanée (souris [3]; 32 mg/kg i.p.): semble la diminuer modérément mais pas significativement
DL-0 (dose maximale non mortelle) (souris [4]): ≥ 64 mg/kg
DL-100 (souris [4]): ≤ 128 mg/kg
effet hypothermisant de l'oxotrémorine (souris [6]; i.p., dose not stated): an- tagonisé
tremblements provoqués par l'oxotrémorine (souris [6]; i.p., dose not stated): ne sont pas modifiés
signes de stimulation cholinergique (souris [6]; [10]): laissent inchangés

CC(C)(C)NCC(O)c1ccccc1F (single isomer, unassigned) [CRL 40 996, chlorhydratede (-)-1-(2-fluorophényl)-2-tertio-butylamino-1-éthanol]
durée d'immobilité (souris [1]; doses of 8 and 32 mg/kg i.p.): diminue modérément
diminution de la réactivité au toucher et du tonus musculaire (duration) (souris [2]; 8 mg/kg i.p.): 0,25 h
hypothermie (souris [2]; 8 mg/kg i.p.): -1,8 °C
hypothermie (duration) (souris [2]; 8 mg/kg i.p.): 0,25 h
sédation (duration) (souris [2]; 8 mg/kg i.p.): 0,5 h
diminution de la réactivité au toucher et du tonus musculaire (duration) (souris [2]; 32 mg/kg i.p.): 0,25 h
disparition du "pinna reflex" (duration) (souris [2]; 32 mg/kg i.p.): 0,5 h
hypothermie (souris [2]; 32 mg/kg i.p.): -2,0 °C
sédation (duration) (souris [2]; 32 mg/kg i.p.): 0,5 h
comportement et réactivités (souris [2]): sans modifications sensibles par rapport aux animaux témoins
activité motrice spontanée (souris [3]; doses of 8 and 32 mg/kg i.p.): diminution très importante
effet antidépresseur dans le traitement des états dépressifs (homme): bon agent antidépresseur
DL-0 (dose maximale non mortelle) (souris [4]): ≥ 64 mg/kg
DL-60 (souris [4]): ~128 mg/kg
latence de l'effet sur l'hypothermie réserpinique (souris [5]; [11]): ~1 heure
ptôsis (souris [5]; [11]): sans modifier
hypothermie réserpinique (souris [5]; from the dose of 0.5 mg/kg i.p., effect does not clearly increase with dose): combat modérément
effet hypothermisant de l'oxotrémorine (souris [6]; i.p., dose not stated): an- tagonisé
tremblements provoqués par l'oxotrémorine (souris [6]; i.p., dose not stated): ne sont pas modifiés
défécation (souris [6]; [10]): semble diminuer
salivation et lacrymation (souris [6]; [10]): sans modifier
comportement de verticalisation et stéréotypies (souris [7]; [12]): sans modifier
hypothermie induite par l'apomorphine (souris [7]; [12]): antagonisme net
sédation fugace (duration) (rat; 4 mg/kg i.p.): 0,25 h
dyspnée (duration) (rat; 16 mg/kg i.p.): 1 h
sédation (duration) (rat; 16 mg/kg i.p.): 0,5 h
comportement et réactivités (rat; doses of 1 and 0,25 mg/kg i.p.): sans modifications sensibles par rapport aux animaux témoins
